In patent US12427128B2, “Sensorineural hair cell differentiation” (Massachusetts Eye and Ear Infirmary, priority 2014, dated 2025):

Legend:
Atoh1 = Atoh1 expression by quantitative RT-PCR in OC-1 cells; type: cell-based, mouse; conditions: OC-1 cells treated with HDAC inhibitors
Description: Atoh1 levels were measured in vitro in OC-1 cells or spheres by quantitative RT-PCR. For RT-PCR. total RNA was extracted from OC-1 cells or spheres treated with RAPT, FGF2, or DART and RNAi with the RiNeasy Maxi Kit (Qiagen) according to the manufacturer's instructions. RNA was denatured at 65° C. for 5 min. For reverse transcription, ImProm II (Promega) was used with random hexamers. Reverse transcription conditions were 25° C. for 5 min followed by 42° C. for 60 min. Reactions were terminated at 70° C. for 15 min. c: ANAs were mixed with Platinum quantitative PCR Supermix ROX with UDG (Invitrogen) and primers for Atoh1, Pax2 or Sox2 (ABI) according to the manufacturer's instructions. Gene expression was measured relative to 18S RNA. Samples were analyzed in 96 well plates in triplicate by quantitative PCR (Applied Biosystems 7900HT) using the following conditions: initial denaturation at 95° C. for 2 min, denaturation at 95° C. for 40 s and annealing/extension at 60′ C for 35 s for 45 cycles.
To address whether interaction with DNA-binding co-factors influenced bound histones at the Atoh1 locus, drugs that block histone modifications were used.

organ of Corti explants = experiment: Hair cell number in organ of Corti explants from Atoh1-GFP mice; type: cell-based, mouse; conditions: for new hair cells in organ of Corti explants: P1-P2 explants, 48 h
Source text: In this example, modulation of Pax2 and Sox2 expression in the differentiating inner ear cells included reducing Sox2 expression levels while increasing Pax2 expression level. Sox2 expression was modulated using DAFT (Jeon et al., j. Neurosci., 31:8351-8358 (2011)). Pax2 expression was modulated using FGF2 (Adamska et al., Mech. Dev., 109:303-313 (2001); Mansukhani et al., J. Cell. Biol., 168:1065-1076 (2005)). DAPT was used to decrease Sox2 and FGF2 to activate Pax2 expression in inner ear stein cells (see FIG. 12A). 4th-5th generation spheres or OC explants (P1-P2) were plated in 4-well plates (Greiner) on round 10 mm glass coverslips coated with poly-L-lysine (Cultrex) and attachment took place overnight in 10% FBS/DMEM-high glucose (GIBCO). Attachment was ensured with microscopic inspection and the medium was changed to serum-free DMEM-high glucose/F12 (mixed 1:1, GIBCO) and N2 and B27 (Invitrogen). Spheres were differentiated for 3, 7 or 10 d. For treatment, either DAFT (2.5 μM) or FGF (20 ng/ml) or control medium containing only DMSO (0.1%) were applied for 7d on spheres and 48 h on OC explants. Cells were harvested and further analyzed by immunohistochemistry. Axiovision 4.3 was used for data acquisition and the number of cells was quantified with Metamorph software. Cell counts were expressed as mean±standard deviation. An average of 1,000 cells were counted for spheres or 100 μm for OC explants. Origin software was used for statistical evaluation. Cell detection techniques are described in the Examples above.
Samples were obtained and detected using methods described above. Organ of Corti explants (P1-P2) from Atoh1-GFP mice were contacted with DAPT, FGF2, or a combination of both for 48 h. Hair cell number was then assessed.

Compound | expression of Atoh1, qRT-PCR relative to 18S RNA (Atoh1) | new hair cells in organ of Corti explants (organ of Corti explants) | numbers of hair cells (organ of Corti explants; postnatal explants, DAPT with control siRNA)
CCCC(CCC)C(=O)O [VPA, valproic acid] | increased expression of Atoh1 |  | 
CC(/C=C/C(=O)NO)=C\[C@@H](C)C(=O)c1ccc(N(C)C)cc1 [TSA, Trichostatin A] | increased expression of Atoh1 |  | 
C[C@H](NC(=O)Cc1cc(F)cc(F)c1)C(=O)N[C@H](C(=O)OC(C)(C)C)c1ccccc1 [DAPT] |  | additional outer hair cells were seen in the apex | Increased numbers of hair cells
FGF2: growth factor used to activate Pax2 expression in inner ear stem cells; 20 ng/ml |  | additional outer hair cells were seen in the apex | 
